Experimental data published in US11135236B2, “Retinoic acid receptor gamma agonists to attenuate anthracycline-induced cardiotoxicity” (Northwestern University, priority 2018, dated 2021).

How the values were obtained:
[1] = system: RARG-OE hiPSC-CMs; test: hiPSC-CM cell viability after 72 h doxorubicin (CellTiter-Glo); assay type: cell-based, human
Protocol: (§1) 384-well plate-based cell viability, caspase 3/7 activity, and reactive oxygen species (ROS) assays. […] Luminescence was measured using a VarioSkan Lux Multi-Mode Reader (Thermo Scientific) with an integration time of 0.25 sec. 10 μM staurosporine (MedChemExpress) was used as a positive control. […] 10 μM staurosporine and 50 μM menadione (both MedChemExpress) was used as a positive control, respectively. Data were analyzed using Prism 7.0 software (GraphPad) using standard dose-response guidelines.

[2] = system: RARG-WT hiPSC-CMs; test: as above; assay type: cell-based, human
Protocol: as §1

[3] = system: control hiPSC-CMs; test: caspase 3 and 7 activity after 24 h doxorubicin (Caspase 3/7-Glo); assay type: cell-based, human
Protocol: as §1

[4] = system: RARG-KO hiPSC-CMs; test: as above; assay type: cell-based, human
Protocol: as §1

[5] = system: MCF7; test: breast cancer cell viability after 72 h of doxorubicin and RARG agonists co-treatment; assay type: cell-based, human; settings: MCF7, doxorubicin 72 h, Vehicle (no agonist)
Protocol: as §1
(§2) Breast cancer cell lines. Four human breast cancer cell lines were used, MCF7 (adenocarcinoma, ATCC HTB-22) and Hs 578T (carcinsarcoma, ATCC HTB-126) both cultured in RPMI 1640 (Corning) with 10% FBS (Opti-Gold, GenDEPOT), MDA-MB-231 (adenocarcinoma, ATCC HTB-26) and MDA-MB-468 (adenocarcinoma, ATCC HTB-131) both cultured in DMEM (Corning) with 10% FBS. All cells were cultured on uncoated tissue culture plates (Greiner) and passaged with TrypLE Express (Gibco).

[6] = system: hiPSC-CMs; test: reactive oxygen species assay (ROS-Glo H2O2); assay type: cell-based, human; settings: isogenic hiPSC-CMs, 24 h doxorubicin
Protocol: as §1

[7] = system: RARG-WT hiPSC-CMs; settings: doxorubicin LD50, agonist 0 μM, 72 h
Protocol: as §1

[8] = system: hiPSC-CMs; test: RNA-seq gene expression analysis of hiPSC-CMs after doxorubicin; settings: 1 μM doxorubicin, 24 h
Description: RNA-seq gene expression analysis. […] RNA was extracted using TRI Reagent and Direct-zol RNA microprep kit (both Zymo) including on-column DNase digestion to remove genomic DNA. Samples were quantified using an Agilent 2100 Bioanalyzer and passed QC. Library preparation was done using a TruSeq RNA v2 kit (Illumina) and sequencing with NextSeq 500 instrument (Illumina) by Northwestern's NuSeq core facility, generating ˜40 million single-end 75 bp reads for each sample. Reads were mapped to the GRCh38 reference human genome using Subread software (Liao et al., 2013). Gene expression levels and exon usage were estimated using featureCounts function in the Subread software (Liao et al., 2013). Differential gene expression analysis was done using Deseq2 package (Love et al., 2014) and R (v3.3.3).

[9] = system: Hs 578T; test: breast cancer cell viability after 72 h of doxorubicin and RARG agonists co-treatment; settings: doxorubicin 72 h, Vehicle (no agonist)
Protocol: as §1, §2

[10] = system: MDA-MB-231; test: as above; settings: MDA-MB-231, doxorubicin 72 h, Vehicle (no agonist)
Protocol: as §1, §2

[11] = system: MDA-MB-468; test: as above; settings: MDA-MB-468, doxorubicin 72 h, Vehicle (no agonist)
Protocol: as §1, §2

COc1cccc2c1C(=O)c1c(O)c3c(c(O)c1C2=O)C[C@@](O)(C(=O)CO)C[C@@H]3O[C@H]1C[C@H](N)[C@H](O)[C@H](C)O1 [doxorubicin]
LD50, cell viability [1]: 2.724 µM
LD50, cell viability [2]: 2.061 µM
LD50, caspase 3 and 7 activity [3]: 2.078 µM
LD50, caspase 3 and 7 activity [4]: 0.314 µM
LD50 [5]: 0.490 µM
ROS production [6]: concentration-dependent increase in ROS production
RARG-WT: LD50 [7]: 0.469 µM
Log2fc AC009014.3 [8]: 5.25
Log2fc AC010136.2 [8]: −3.13
Log2fc ADCYAP1R1 [8]: 6.25
Log2fc AL591893.1 [8]: 6.49
Log2fc BUB1B [8]: −2.89
Log2fc C11orf87 [8]: −3.03
Log2fc CA7 [8]: 5.41
Log2fc CAV3 [8]: −3.53
Log2fc CCDC60 [8]: 4.98
Log2fc CCDC178 [8]: 5.45
Log2fc CENPA [8]: −2.97
Log2fc CENPE [8]: −3.10
Log2fc CENPI [8]: −3.23
Log2fc CHI3L2 [8]: 5.04
Log2fc CLCA2 [8]: 5.42
Log2fc CMB9.22P13.2 [8]: 4.99
Log2fc CRTAC1 [8]: 5.32
Log2fc CSTA [8]: 5.15
Log2fc CTD.2083E4.7 [8]: −3.85
Log2fc CYP2J2 [8]: −2.82
Log2fc DAND5 [8]: −4.17
Log2fc DIRAS2 [8]: −3.30
Log2fc DOK7 [8]: −3.42
Log2fc DORAS1 [8]: −2.90
Log2fc EN2 [8]: 4.93
Log2fc ETV7 [8]: 6.04
Log2fc FABP5P3 [8]: 4.97
Log2fc FAM196A [8]: 6.36
Log2fc FBXL22 [8]: −2.80
Log2fc FBXO40 [8]: −2.86
Log2fc FOXD3 [8]: 5.31
Log2fc FUT1 [8]: −2.91
Log2fc GCK [8]: −3.14
Log2fc GDNF [8]: 5.54
Log2fc GPR87 [8]: 6.48
Log2fc GRHL3 [8]: 5.45
Log2fc HIST1H2AG [8]: 5.29
Log2fc HIST1H2AI [8]: 5.70
Log2fc HIST1H2BF [8]: 6.22
Log2fc HIST1H2BG [8]: 4.94
Log2fc HIST1H3A [8]: 5.14
Log2fc HIST1H3H [8]: 5.59
Log2fc HIST1H3J [8]: 5.16
Log2fc HIST1H4B [8]: 5.29
Log2fc HPR [8]: −3.01
Log2fc HRK [8]: −3.01
Log2fc IGFL3 [8]: 5.18
Log2fc INSM1 [8]: 4.97
Log2fc KCNK3 [8]: −3.07
Log2fc KCNK10 [8]: 6.80
Log2fc KIF18B [8]: −2.86
Log2fc LINC01164 [8]: 4.96
Log2fc LINC01224 [8]: −3.31
Log2fc LINC01489 [8]: −3.45
Log2fc LRRC10 [8]: −3.05
Log2fc LRRC14B [8]: −4.13
Log2fc MIR145 [8]: −3.74
Log2fc NEIL3 [8]: −2.89
Log2fc NFE2 [8]: −3.03
Log2fc NHLH2 [8]: 7.10
Log2fc NKX1.2 [8]: 5.72
Log2fc NMUR1 [8]: −2.85
Log2fc NOTO [8]: 5.13
Log2fc NPBWR1 [8]: 5.06
Log2fc NUF2 [8]: −2.87
Log2fc PAX5 [8]: 6.11
Log2fc PEG13 [8]: −3.16
Log2fc POU3F1 [8]: 7.21
Log2fc PRSS42 [8]: −2.89
Log2fc PRSS44 [8]: −3.02
Log2fc RP1.34B20.4 [8]: 5.94
Log2fc RP1.46F2.3 [8]: −3.03
Log2fc RP3.326I13.1 [8]: 5.19
Log2fc RP3.412A9.12 [8]: −2.87
Log2fc RP4.794I6.4 [8]: 5.33
Log2fc RP5.1139B12.4 [8]: −3.80
Log2fc RP5.1148A21.3 [8]: 5.37
Log2fc RP5.884C9.2 [8]: 5.53
Log2fc RP11.108M9.3 [8]: −4.12
Log2fc RP11.1149O23.2 [8]: 5.86
Log2fc RP11.19O2.1 [8]: −3.69
Log2fc RP11.234B24.2 [8]: −2.89
Log2fc RP11.529G21.2 [8]: 5.03
Log2fc RP11.712B9.2 [8]: 5.10
Log2fc RPL7P3 [8]: −3.03
Log2fc SEC14L5 [8]: −3.33
Log2fc SLC4A11 [8]: 5.81
Log2fc SLC5A1 [8]: −2.94
Log2fc TFAP2C [8]: 4.93
Log2fc TGFB111 [8]: −2.77
Log2fc TMEM72 [8]: −2.93
Log2fc TMEM88 [8]: −2.81
Log2fc TMEM158 [8]: 5.19
Log2fc TMEM229B [8]: 4.99
Log2fc TNFRSF10A [8]: 5.25
Log2fc UTS2R [8]: −3.09
Log2fc XIRP2 [8]: −2.88
Log2fc ZNF385C.1 [8]: −3.34
genes associated with apoptosis, DNA damage, oxidative stress, and doxorubicin resistance ([8]; RNA-seq): significant upregulation
genes associated with cardiac function ([8]; RNA-seq): downregulation
LD50 [9]: 1.829 µM
LD50 [10]: 1.301 µM
LD50 [11]: 1.330 µM
